We go through 31 compounds from US10954232B2, “Pyrazole derivative as ALK5 inhibitor and uses thereof” (HANMI PHARMACEUTICAL CO., LTD., priority 2016, dated 2021).

Each structure is given as a SMILES string.

For the assay, the target named is T1, ALK5 kinase (Homo sapiens, UniProt P36897).
T1 construct: GST; purchased Thermo Fisher Scientific Solutions
T1 sequence (P36897 34-503): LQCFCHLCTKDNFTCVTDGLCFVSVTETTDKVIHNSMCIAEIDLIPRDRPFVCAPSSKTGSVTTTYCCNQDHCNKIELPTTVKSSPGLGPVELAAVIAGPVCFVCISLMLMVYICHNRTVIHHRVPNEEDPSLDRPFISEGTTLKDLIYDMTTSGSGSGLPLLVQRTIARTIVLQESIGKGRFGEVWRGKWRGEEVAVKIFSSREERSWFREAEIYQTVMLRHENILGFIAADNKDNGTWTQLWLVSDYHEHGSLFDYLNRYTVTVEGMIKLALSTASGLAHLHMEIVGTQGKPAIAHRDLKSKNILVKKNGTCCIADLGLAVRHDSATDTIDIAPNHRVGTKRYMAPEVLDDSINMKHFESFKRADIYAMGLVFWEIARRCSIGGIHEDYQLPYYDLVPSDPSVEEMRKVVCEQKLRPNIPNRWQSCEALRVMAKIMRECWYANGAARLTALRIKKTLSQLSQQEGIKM
Nature of the assay: Activity inhibition test on ALK5 enzyme (LanthaScreen Eu binding kinase assay). The note with it: kinase tracer 178, 60 minutes at room temperature. The procedure, abridged: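 TR-FRET tracer-displacement format with final 5 nM ALK5, 2 nM Eu-GST antibody and 10 nM kinase tracer 178. Compound dilution series ran 1 μM–0.0001 μM, incubated 60 min at room temperature with stirring. Fluorescence was read ([…]), and IC50 came from percent inhibition versus control.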

For the compound `Cc1cccc(-n2nc(C(=O)Nc3ccccc3)cc2-c2ccc3ncnn3c2)n1` [Example 114, 5-([1,2,4]triazolo[1,5-α]pyridin-6-yl)-1-(6-methylpyridin-2-yl)-N-phenyl-1H-pyrazole-3-carboxyamide], the IC50 is 9.5 nM.

Take `Cc1cccc(-n2nc(C(=O)Nc3ccccc3C)cc2-c2ccc3ncnn3c2)n1` [Example 115, 5-([1,2,4]triazolo[1,5-α]pyridin-6-yl)-1-(6-methylpyridin-2-yl)-N-(o-tolyl)-1H-pyrazole-3-carboxyamide]: the IC50 was in the range of 10 to 100 nM.

As for `Cc1cccc(NC(=O)c2cc(-c3ccc4ncnn4c3)n(-c3cccc(C)n3)n2)c1` [Example 116, 5-([1,2,4]triazolo[1,5-α]pyridin-6-yl)-1-(6-methylpyridin-2-yl)-N-(m-tolyl)-1H-pyrazole-3-carboxyamide], the IC50 was around 10 nM.

With `Cc1ccc(NC(=O)c2cc(-c3ccc4ncnn4c3)n(-c3cccc(C)n3)n2)cc1` [Example 117, 5-([1,2,4]triazolo[1,5-α]pyridin-6-yl)-1-(6-methylpyridin-2-yl)-N-(p-tolyl)-1H-pyrazole-3-carboxyamide], the IC50 was 10 to 100 nM.

For the compound `Cc1cccc(-n2nc(C(=O)Nc3cccc(C(F)(F)F)c3)cc2-c2ccc3ncnn3c2)n1` [Example 118, 5-([1,2,4]triazolo[1,5-α]pyridin-6-yl)-1-(6-methylpyridin-2-yl)-N-(3-(trifluoromethyl)phenyl)-1H-pyrazole-3-carboxyamide], the IC50 lay in the range of 10 to 100 nM.

`C=Cc1ccc(NC(=O)c2cc(-c3ccc4ncnn4c3)n(-c3cccc(C)n3)n2)cc1` [Example 119, 5-([1,2,4]triazolo[1,5-α]pyridin-6-yl)-1-(6-methylpyridin-2-yl)-N-(4-vinylphenyl)-1H-pyrazole-3-carboxyamide] returned an IC50 below 10 nM.

`Cc1cccc(-n2nc(C(=O)Nc3cccc(C#N)c3)cc2-c2ccc3ncnn3c2)n1` [Example 120, 5-([1,2,4]triazolo[1,5-α]pyridin-6-yl)-N-(3-cyanophenyl)-1-(6-methylpyridin-2-yl)-1H-pyrazole-3-carboxyamide] displayed an IC50 of 10 to 100 nM.

For the compound `Cc1cccc(-n2nc(C(=O)Nc3ccc(C#N)cc3)cc2-c2ccc3ncnn3c2)n1` [Example 121, 5-([1,2,4]triazolo[1,5-α]pyridin-6-yl)-N-(4-cyanophenyl)-1-(6-methylpyridin-2-yl)-1-H-pyrazole-3-carboxyamide], the IC50 is 10 to 100 nM.

On to `CC(=O)c1cccc(NC(=O)c2cc(-c3ccc4ncnn4c3)n(-c3cccc(C)n3)n2)c1` [Example 122, 5-([1,2,4]triazolo[1,5-α]pyridin-6-yl)-N-(3-acetylphenyl)-1-(6-methylpyridin-2-yl)-1H-pyrazole-3-carboxyamide], for which the IC50 lay in the range of 10 to 100 nM.

The compound `CC(=O)c1ccc(NC(=O)c2cc(-c3ccc4ncnn4c3)n(-c3cccc(C)n3)n2)cc1` [Example 123, 5-([1,2,4]triazolo[1,5-α]pyridin-6-yl)-N-(4-acetylphenyl)-1-(6-methylpyridin-2-yl)-1H-pyrazole-3-carboxyamide] displayed an IC50 of 10 to 100 nM.

The compound `Cc1cccc(-n2nc(C(=O)Nc3ccccc3F)cc2-c2ccc3ncnn3c2)n1` [Example 124, 5-([1,2,4]triazolo[1,5-α]pyridin-6-yl)-N-(2-fluorophenyl)-1-(6-methylpyridin-2-yl)-1H-pyrazole-3-carboxyamide] gave an IC50 of 31 nM.

In turn, `Cc1cccc(-n2nc(C(=O)Nc3cccc(F)c3)cc2-c2ccc3ncnn3c2)n1` [Example 125, 5-([1,2,4]triazolo[1,5-α]pyridin-6-yl)-N-(3-fluorophenyl)-1-(6-methylpyridin-2-yl)-1H-pyrazole-3-carboxyamide] displayed an IC50 of 10 to 100 nM.

Compound `Cc1cccc(-n2nc(C(=O)Nc3ccc(F)cc3)cc2-c2ccc3ncnn3c2)n1` [Example 126, 5-([1,2,4]triazolo[1,5-α]pyridin-6-yl)-N-(4-fluorophenyl)-1-(6-methylpyridin-2-yl)-1H-pyrazole-3-carboxyamide] yielded an IC50 of around 10 nM.

`Cc1cccc(-n2nc(C(=O)Nc3ccccc3Cl)cc2-c2ccc3ncnn3c2)n1` [Example 127, 5-([1,2,4]triazolo[1,5-α]pyridin-6-yl)-N-(2-chlorophenyl)-1-(6-methylpyridin-2-yl)-1H-pyrazole-3-carboxyamide] registered a concentration for half-maximal inhibition (IC50) of around 100 nM.

For `Cc1cccc(-n2nc(C(=O)Nc3cccc(Cl)c3)cc2-c2ccc3ncnn3c2)n1` [Example 128, 5-([1,2,4]triazolo[1,5-α]pyridin-6-yl)-N-(3-chlorophenyl)-1-(6-methylpyridin-2-yl)-1H-pyrazole-3-carboxyamide], the concentration for half-maximal inhibition (IC50) is 10 to 100 nM.

As to `Cc1cccc(-n2nc(C(=O)Nc3ccc(Cl)cc3)cc2-c2ccc3ncnn3c2)n1` [Example 129, 5-([1,2,4]triazolo[1,5-α]pyridin-6-yl)-N-(4-chlorophenyl)-1-(6-methylpyridin-2-yl)-1H-pyrazole-3-carboxyamide], the half-inhibitory concentration (IC50) lay in the range of 10 to 100 nM.

With `Cc1cccc(-n2nc(C(=O)Nc3ccccc3Br)cc2-c2ccc3ncnn3c2)n1` [Example 130, 5-([1,2,4]triazolo[1,5-α]pyridin-6-yl)-N-(2-bromophenyl)-1-(6-methylpyridin-2-yl)-1H-pyrazole-3-carboxyamide], the IC50 is 10 to 100 nM.

In turn, `Cc1cccc(-n2nc(C(=O)Nc3cccc(Br)c3)cc2-c2ccc3ncnn3c2)n1` [Example 131, 5-([1,2,4]triazolo[1,5-α]pyridin-6-yl)-N-(3-bromophenyl)-1-(6-methylpyridin-2-yl)-1H-pyrazole-3-carboxyamide] gave an IC50 of 10 to 100 nM.

In turn, `Cc1cccc(-n2nc(C(=O)Nc3ccc(Br)cc3)cc2-c2ccc3ncnn3c2)n1` [Example 132, 5-([1,2,4]triazolo[1,5-α]pyridin-6-yl)-N-(4-bromophenyl)-1-(6-methylpyridin-2-yl)-1H-pyrazole-3-carboxyamide] gave an IC50 of around 10 nM.

Take `Cc1cccc(-n2nc(C(=O)Nc3cccc(F)c3F)cc2-c2ccc3ncnn3c2)n1` [Example 133, 5-([1,2,4]triazolo[1,5-α]pyridin-6-yl)-N-(2,3-difluorophenyl)-1-(6-methylpyridin-2-yl)-1H-pyrazole-3-carboxyamide]: the IC50 was 10 to 100 nM.

`Cc1cccc(-n2nc(C(=O)Nc3ccc(F)cc3F)cc2-c2ccc3ncnn3c2)n1` [Example 134, 5-([1,2,4]triazolo[1,5-α]pyridin-6-yl)-N-(2,4-difluorophenyl)-1-(6-methylpyridin-2-yl)-1H-pyrazole-3-carboxyamide] gave an IC50 of 10 to 100 nM.

Compound `Cc1cccc(-n2nc(C(=O)Nc3cc(F)ccc3F)cc2-c2ccc3ncnn3c2)n1` [Example 135, 5-([1,2,4]triazolo[1,5-α]pyridin-6-yl)-N-(2,5-difluorophenyl)-1-(6-methylpyridin-2-yl)-1H-pyrazole-3-carboxyamide] had an IC50 of 10 to 100 nM.

In turn, `Cc1cccc(-n2nc(C(=O)Nc3ccc(F)c(F)c3)cc2-c2ccc3ncnn3c2)n1` [Example 136, 5-([1,2,4]triazolo[1,5-α]pyridin-6-yl)-N-(3,4-difluorophenyl)-1-(6-methylpyridin-2-yl)-1H-pyrazole-3-carboxyamide] had an IC50 of around 10 nM.

`Cc1cccc(-n2nc(C(=O)Nc3cc(F)cc(F)c3)cc2-c2ccc3ncnn3c2)n1` [Example 137, 5-([1,2,4]triazolo[1,5-α]pyridin-6-yl)-N-(3,5-difluorophenyl)-1-(6-methylpyridin-2-yl)-1H-pyrazole-3-carboxyamide] returned an IC50 of 10 to 100 nM.

Regarding `Cc1cccc(-n2nc(C(=O)Nc3cccc(Cl)c3F)cc2-c2ccc3ncnn3c2)n1` [Example 138, 5-([1,2,4]triazolo[1,5-α]pyridin-6-yl)-N-(3-chloro-2-fluorophenyl)-1-(6-methylpyridin-2-yl)-1H-pyrazole-3-carboxyamide], the IC50 was 10 to 100 nM.

Regarding `Cc1cccc(-n2nc(C(=O)Nc3ccc(Cl)cc3F)cc2-c2ccc3ncnn3c2)n1` [Example 139, 5-([1,2,4]triazolo[1,5-α]pyridin-6-yl)-N-(4-chloro-2-fluorophenyl)-1-(6-methylpyridin-2-yl)-1H-pyrazole-3-carboxyamide], the IC50 fell in the range of 10 to 100 nM.

As to `Cc1cccc(-n2nc(C(=O)Nc3ccc(F)c(Cl)c3)cc2-c2ccc3ncnn3c2)n1` [Example 140, 5-([1,2,4]triazolo[1,5-α]pyridin-6-yl)-N-(3-chloro-4-fluorophenyl)-1-(6-methylpyridin-2-yl)-1H-pyrazole-3-carboxyamide], the IC50 was around 10 nM.

Compound `Cc1cccc(-n2nc(C(=O)Nc3ccc(Cl)c(Cl)c3)cc2-c2ccc3ncnn3c2)n1` [Example 141, 5-([1,2,4]triazolo[1,5-α]pyridin-6-yl)-N-(3,4-dichlorophenyl)-1-(6-methylpyridin-2-yl)-1H-pyrazole-3-carboxyamide] gave an IC50 of 10 to 100 nM.

As to `Cc1cccc(-n2nc(C(=O)Nc3ccc(F)cc3Br)cc2-c2ccc3ncnn3c2)n1` [Example 142, 5-([1,2,4]triazolo[1,5-α]pyridin-6-yl)-N-(2-bromo-4-fluorophenyl)-1-(6-methylpyridin-2-yl)-1H-pyrazole-3-carboxyamide], the IC50 was 10 to 100 nM.

With `CSc1cccc(NC(=O)c2cc(-c3ccc4ncnn4c3)n(-c3cccc(C)n3)n2)c1` [Example 143], the IC50 turned out to be 6.6 nM.

In turn, `CSc1ccc(NC(=O)c2cc(-c3ccc4ncnn4c3)n(-c3cccc(C)n3)n2)cc1` [Example 144] came in with a half-inhibitory concentration (IC50) of 10 to 100 nM.
